Laboratory results reported in PMC12090182, “Repurposing of the RIPK1-Selective Benzo[1,4]oxazepin-4-one Scaffold for the Development of a Type III LIMK1/2 Inhibitor” (ACS Chemical Biology, 2025).

Assays:
PTK2B = PTK2B (Homo sapiens, UniProt Q14289); assay type: cell-based; details: HEK-293T; 1 μM inhibitor, HEK293T cells
Experimental: (§1) For plate preparation, a transfection mix was prepared in white 384-well small-volume plates (Greiner, cat. no. 784075) by preplating 3 μL of 20 μL/mL FuGene HD (Promega, cat. no. E2311), diluted in an Opti-MEM medium (Gibco, cat. no. 11058-021). One μL of DNA from both DNA vector source plates of the K192 kit was added using an Echo 550 acoustic dispenser (Beckman Coulter). The mix was incubated for 30 min, and 6 μL of HEK293T cells in an Opti-MEM medium was added. The proteins were allowed to express for 20 h. After expression, Tracer K10 was added using the concentrations recommended in the K192 technical manual and a 1 μM inhibitor was added to every second well. […] Five μL of substrate solution was added to every well, and filtered luminescence was measured on a PHERAstar plate reader (BMG Labtech) equipped with a luminescence filter pair (450 nm BP filter (donor) and a 610 nm LP filter (acceptor)). For every kinase, occupancy was calculated and plotted using GraphPad Prism 10 (Table S5).

MAPK8 = MAPK8 (Homo sapiens, UniProt P45983); assay type: cell-based; details: HEK-293T; 1 μM inhibitor, HEK293T cells
Experimental: as §1

SNF1LK2 = SNF1LK2 (Homo sapiens, UniProt Q9H0K1); assay type: cell-based; details: HEK-293T; 1 μM inhibitor, HEK293T cells
Experimental: as §1

FYN [1] = molecular target: T1, FYN (Homo sapiens, UniProt P06241); assay type: cell-based; details: HEK-293T; 1 μM inhibitor, HEK293T cells
Experimental: as §1

JNK3 = JNK3 (Homo sapiens, UniProt P53779); assay type: cell-based; details: HEK-293T; 1 μM inhibitor, HEK293T cells
Experimental: as §1

CSNK1G2 = CSNK1G2 (Homo sapiens, UniProt P78368); assay type: cell-based; details: HEK-293T; 1 μM inhibitor, HEK293T cells
Experimental: as §1

PIK3CD = PIK3CD (Homo sapiens, UniProt O00329); assay: scanMAX KINOMEscan (Eurofins); assay type: binding; details: 1000 nM, read-out: Percent Control
Source text: (§2) Supplement cb5c00097_si_002.xlsx, sheet "Table S6 (Eurofins Selectivity)" | column: Percent Control

GRK2 = GRK2 (Homo sapiens, UniProt P25098); assay: scanMAX KINOMEscan (Eurofins); assay type: binding; details: read-out: Percent Control
Source text: as §2

NEK2 = NEK2 (Homo sapiens, UniProt P51955); assay: scanMAX KINOMEscan (Eurofins); assay type: binding; details: compound concentration 100 nM; Entrez NEK2; read-out: Percent Control
Source text: as §2

CDK4-cyclinD3 = CDK4-cyclinD3 (Homo sapiens, UniProt P11802); assay: scanMAX KINOMEscan (Eurofins); assay type: binding; details: 1000 nM, read-out: Percent Control
Source text: as §2

TTK = TTK (Homo sapiens, UniProt P33981); assay: scanMAX KINOMEscan (Eurofins); assay type: binding; details: 1000 nM, read-out: Percent Control
Source text: as §2

TNIK = TNIK (Homo sapiens, UniProt Q9UKE5); assay: scanMAX KINOMEscan (Eurofins); assay type: binding; details: 1000 nM, read-out: Percent Control
Source text: as §2

RIPK2 = RIPK2 (Homo sapiens, UniProt O43353); assay: scanMAX KINOMEscan (Eurofins); assay type: binding; details: 1000 nM, read-out: Percent Control
Source text: as §2

VPS34 = VPS34 (Homo sapiens, UniProt Q8NEB9); assay: scanMAX KINOMEscan (Eurofins); assay type: binding; details: compound concentration 100 nM; Entrez PIK3C3; read-out: Percent Control
Source text: as §2

ERK5 = ERK5 (Homo sapiens, UniProt Q13164); assay: scanMAX KINOMEscan (Eurofins); assay type: binding; details: 1000 nM, read-out: Percent Control
Source text: as §2

PLK4 = PLK4 (Homo sapiens, UniProt O00444); assay: scanMAX KINOMEscan (Eurofins); assay type: binding; details: 1000 nM, read-out: Percent Control
Source text: as §2

QSK = QSK (Homo sapiens, UniProt Q9Y2K2); assay: scanMAX KINOMEscan (Eurofins); assay type: binding; details: read-out: Percent Control
Source text: as §2

SLK = SLK (Homo sapiens, UniProt Q9H2G2); assay: scanMAX KINOMEscan (Eurofins); assay type: binding; details: 1000 nM, read-out: Percent Control
Source text: as §2

CDK9 = CDK9 (Homo sapiens, UniProt P50750); assay: scanMAX KINOMEscan (Eurofins); assay type: binding; details: 1000 nM, read-out: Percent Control
Source text: as §2

HUNK = HUNK (Homo sapiens, UniProt P57058); assay: scanMAX KINOMEscan (Eurofins); assay type: binding; details: read-out: Percent Control
Source text: as §2

MYO3A = MYO3A (Homo sapiens, UniProt Q8NEV4); assay: scanMAX KINOMEscan (Eurofins); assay type: binding; details: 1000 nM, read-out: Percent Control
Source text: as §2

NIK = NIK (Homo sapiens, UniProt Q99558); assay: scanMAX KINOMEscan (Eurofins); assay type: binding; details: compound concentration 100 nM; Entrez MAP3K14; read-out: Percent Control
Source text: as §2

FGFR2 = FGFR2 (Homo sapiens, UniProt P21802); assay: scanMAX KINOMEscan (Eurofins); assay type: binding; details: read-out: Percent Control
Source text: as §2

NEK7 = NEK7 (Homo sapiens, UniProt Q8TDX7); assay: scanMAX KINOMEscan (Eurofins); assay type: binding; details: 1000 nM, read-out: Percent Control
Source text: as §2

PAK3 = PAK3 (Homo sapiens, UniProt O75914); assay: scanMAX KINOMEscan (Eurofins); assay type: binding; details: 1000 nM, read-out: Percent Control
Source text: as §2

FYN [2] = molecular target: T1, FYN; assay: scanMAX KINOMEscan (Eurofins); assay type: binding; details: 1000 nM, read-out: Percent Control
Source text: as §2

MST1R = MST1R (Homo sapiens, UniProt Q04912); assay: scanMAX KINOMEscan (Eurofins); assay type: binding; details: 1000 nM, read-out: Percent Control
Source text: as §2

MKK7 = MKK7 (Homo sapiens, UniProt O14733); assay: scanMAX KINOMEscan (Eurofins); assay type: binding; details: read-out: Percent Control
Source text: as §2

MLCK = MLCK (Homo sapiens, UniProt Q32MK0); assay: scanMAX KINOMEscan (Eurofins); assay type: binding; details: 1000 nM, read-out: Percent Control
Source text: as §2

DRAK1 = DRAK1 (Homo sapiens, UniProt Q9UEE5); assay: scanMAX KINOMEscan (Eurofins); assay type: binding; details: 1000 nM, read-out: Percent Control
Source text: as §2

LCK = LCK (Homo sapiens, UniProt P06239); assay: scanMAX KINOMEscan (Eurofins); assay type: binding; details: 1000 nM, read-out: Percent Control
Source text: as §2

FLT3(N841I) = FLT3(N841I) (Homo sapiens, UniProt P36888, N841I); assay: biochemical; assay type: binding; details: 1000 nM, read-out: Percent Control
FLT3(ITD,D835V) = assay type: binding; details: 1000 nM

Sequence of QSK (Q9Y2K2 whole entry): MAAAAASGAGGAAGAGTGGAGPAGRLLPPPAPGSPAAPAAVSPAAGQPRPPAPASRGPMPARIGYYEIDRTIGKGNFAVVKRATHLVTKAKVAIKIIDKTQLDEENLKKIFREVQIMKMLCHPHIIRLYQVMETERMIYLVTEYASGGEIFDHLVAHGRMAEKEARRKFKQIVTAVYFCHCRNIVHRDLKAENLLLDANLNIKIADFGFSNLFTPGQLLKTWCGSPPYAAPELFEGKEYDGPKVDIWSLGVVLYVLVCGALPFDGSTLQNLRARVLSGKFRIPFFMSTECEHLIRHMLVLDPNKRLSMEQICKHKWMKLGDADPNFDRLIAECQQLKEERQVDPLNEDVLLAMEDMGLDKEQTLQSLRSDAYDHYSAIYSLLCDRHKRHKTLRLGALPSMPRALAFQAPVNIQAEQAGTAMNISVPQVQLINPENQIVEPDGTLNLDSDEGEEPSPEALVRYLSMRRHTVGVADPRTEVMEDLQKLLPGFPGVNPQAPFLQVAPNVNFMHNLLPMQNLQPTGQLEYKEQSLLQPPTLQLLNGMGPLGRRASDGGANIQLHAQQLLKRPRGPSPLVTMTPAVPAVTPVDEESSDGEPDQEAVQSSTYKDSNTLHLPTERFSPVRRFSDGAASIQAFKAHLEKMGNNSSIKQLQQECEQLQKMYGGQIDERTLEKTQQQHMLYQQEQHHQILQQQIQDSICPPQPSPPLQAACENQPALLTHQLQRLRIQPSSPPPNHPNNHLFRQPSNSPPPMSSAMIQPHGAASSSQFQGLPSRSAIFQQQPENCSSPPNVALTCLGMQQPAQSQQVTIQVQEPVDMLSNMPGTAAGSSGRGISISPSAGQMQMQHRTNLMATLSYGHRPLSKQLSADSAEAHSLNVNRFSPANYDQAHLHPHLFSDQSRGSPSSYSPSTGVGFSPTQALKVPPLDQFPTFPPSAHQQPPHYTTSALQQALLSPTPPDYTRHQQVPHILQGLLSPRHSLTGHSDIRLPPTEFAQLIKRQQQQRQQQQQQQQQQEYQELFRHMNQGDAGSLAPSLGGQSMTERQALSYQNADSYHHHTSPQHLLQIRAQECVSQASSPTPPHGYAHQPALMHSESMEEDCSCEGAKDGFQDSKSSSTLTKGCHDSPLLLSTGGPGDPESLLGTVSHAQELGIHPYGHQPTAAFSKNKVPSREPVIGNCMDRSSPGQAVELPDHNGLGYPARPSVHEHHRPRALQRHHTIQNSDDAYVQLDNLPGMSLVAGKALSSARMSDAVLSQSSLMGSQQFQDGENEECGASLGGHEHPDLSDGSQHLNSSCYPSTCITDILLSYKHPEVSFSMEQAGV
Sequence of GRK2 (P25098 whole entry): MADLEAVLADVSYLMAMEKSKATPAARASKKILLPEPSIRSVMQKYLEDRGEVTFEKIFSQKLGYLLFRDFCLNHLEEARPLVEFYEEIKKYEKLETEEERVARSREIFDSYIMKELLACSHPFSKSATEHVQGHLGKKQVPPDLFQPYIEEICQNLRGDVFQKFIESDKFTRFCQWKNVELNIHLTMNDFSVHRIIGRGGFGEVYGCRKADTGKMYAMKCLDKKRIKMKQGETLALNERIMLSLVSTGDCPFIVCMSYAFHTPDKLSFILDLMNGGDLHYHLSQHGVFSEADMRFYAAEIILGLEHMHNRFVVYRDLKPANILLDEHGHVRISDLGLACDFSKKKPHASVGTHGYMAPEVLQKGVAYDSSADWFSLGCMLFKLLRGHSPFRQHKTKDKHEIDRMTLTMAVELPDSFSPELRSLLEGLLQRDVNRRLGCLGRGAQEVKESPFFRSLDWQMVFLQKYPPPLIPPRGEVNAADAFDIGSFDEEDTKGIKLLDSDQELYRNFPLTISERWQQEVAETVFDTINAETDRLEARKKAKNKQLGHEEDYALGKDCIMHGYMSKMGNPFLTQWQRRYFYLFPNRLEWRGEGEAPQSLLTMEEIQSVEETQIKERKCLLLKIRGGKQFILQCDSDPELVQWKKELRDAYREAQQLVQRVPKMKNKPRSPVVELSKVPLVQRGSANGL
Sequence of FGFR2 (P21802 22-821): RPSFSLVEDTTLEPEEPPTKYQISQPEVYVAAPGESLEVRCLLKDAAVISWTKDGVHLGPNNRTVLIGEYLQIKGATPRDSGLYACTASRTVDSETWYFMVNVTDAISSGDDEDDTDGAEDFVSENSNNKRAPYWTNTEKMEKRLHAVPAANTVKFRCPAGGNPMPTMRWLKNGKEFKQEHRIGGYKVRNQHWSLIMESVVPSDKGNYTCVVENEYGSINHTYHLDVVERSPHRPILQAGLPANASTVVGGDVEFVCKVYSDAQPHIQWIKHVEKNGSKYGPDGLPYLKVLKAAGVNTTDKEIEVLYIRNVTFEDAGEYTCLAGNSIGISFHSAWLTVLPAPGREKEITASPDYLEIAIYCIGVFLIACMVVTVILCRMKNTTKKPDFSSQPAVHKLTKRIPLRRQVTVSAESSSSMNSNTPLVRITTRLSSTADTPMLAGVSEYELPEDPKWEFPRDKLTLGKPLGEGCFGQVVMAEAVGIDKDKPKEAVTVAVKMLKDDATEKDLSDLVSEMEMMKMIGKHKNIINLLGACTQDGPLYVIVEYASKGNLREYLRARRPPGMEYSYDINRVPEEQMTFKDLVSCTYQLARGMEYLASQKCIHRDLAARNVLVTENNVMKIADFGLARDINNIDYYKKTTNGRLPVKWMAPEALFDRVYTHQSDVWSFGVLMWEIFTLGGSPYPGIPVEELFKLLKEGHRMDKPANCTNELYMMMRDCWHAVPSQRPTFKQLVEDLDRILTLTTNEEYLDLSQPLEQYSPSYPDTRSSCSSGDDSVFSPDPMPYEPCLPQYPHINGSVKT
T1 sequence (P06241 whole entry): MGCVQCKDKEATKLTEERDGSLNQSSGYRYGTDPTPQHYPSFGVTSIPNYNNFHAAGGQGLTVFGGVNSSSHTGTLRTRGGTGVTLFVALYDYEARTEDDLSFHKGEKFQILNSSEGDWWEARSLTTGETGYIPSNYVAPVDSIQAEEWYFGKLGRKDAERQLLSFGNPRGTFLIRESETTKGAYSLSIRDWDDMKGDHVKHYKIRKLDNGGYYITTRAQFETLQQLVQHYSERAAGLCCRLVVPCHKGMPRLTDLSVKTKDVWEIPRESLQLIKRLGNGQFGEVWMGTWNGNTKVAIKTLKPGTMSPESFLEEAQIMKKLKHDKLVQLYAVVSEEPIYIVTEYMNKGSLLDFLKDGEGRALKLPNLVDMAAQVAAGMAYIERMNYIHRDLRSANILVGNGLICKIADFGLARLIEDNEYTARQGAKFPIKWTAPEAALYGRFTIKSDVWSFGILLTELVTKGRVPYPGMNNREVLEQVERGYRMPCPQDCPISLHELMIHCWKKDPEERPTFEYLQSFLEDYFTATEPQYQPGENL
Sequence of MKK7 (O14733 whole entry): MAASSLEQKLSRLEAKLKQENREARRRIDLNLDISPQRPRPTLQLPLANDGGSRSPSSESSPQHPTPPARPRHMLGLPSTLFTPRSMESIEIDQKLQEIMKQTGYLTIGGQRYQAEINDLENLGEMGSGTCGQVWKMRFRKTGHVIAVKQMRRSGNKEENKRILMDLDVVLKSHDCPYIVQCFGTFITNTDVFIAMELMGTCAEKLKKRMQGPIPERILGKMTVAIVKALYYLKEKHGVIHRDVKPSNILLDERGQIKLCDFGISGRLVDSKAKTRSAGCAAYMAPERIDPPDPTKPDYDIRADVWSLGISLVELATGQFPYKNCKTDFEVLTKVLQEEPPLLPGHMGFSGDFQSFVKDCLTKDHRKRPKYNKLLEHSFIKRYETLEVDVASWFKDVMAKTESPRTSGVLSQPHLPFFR
Sequence of HUNK (P57058 whole entry): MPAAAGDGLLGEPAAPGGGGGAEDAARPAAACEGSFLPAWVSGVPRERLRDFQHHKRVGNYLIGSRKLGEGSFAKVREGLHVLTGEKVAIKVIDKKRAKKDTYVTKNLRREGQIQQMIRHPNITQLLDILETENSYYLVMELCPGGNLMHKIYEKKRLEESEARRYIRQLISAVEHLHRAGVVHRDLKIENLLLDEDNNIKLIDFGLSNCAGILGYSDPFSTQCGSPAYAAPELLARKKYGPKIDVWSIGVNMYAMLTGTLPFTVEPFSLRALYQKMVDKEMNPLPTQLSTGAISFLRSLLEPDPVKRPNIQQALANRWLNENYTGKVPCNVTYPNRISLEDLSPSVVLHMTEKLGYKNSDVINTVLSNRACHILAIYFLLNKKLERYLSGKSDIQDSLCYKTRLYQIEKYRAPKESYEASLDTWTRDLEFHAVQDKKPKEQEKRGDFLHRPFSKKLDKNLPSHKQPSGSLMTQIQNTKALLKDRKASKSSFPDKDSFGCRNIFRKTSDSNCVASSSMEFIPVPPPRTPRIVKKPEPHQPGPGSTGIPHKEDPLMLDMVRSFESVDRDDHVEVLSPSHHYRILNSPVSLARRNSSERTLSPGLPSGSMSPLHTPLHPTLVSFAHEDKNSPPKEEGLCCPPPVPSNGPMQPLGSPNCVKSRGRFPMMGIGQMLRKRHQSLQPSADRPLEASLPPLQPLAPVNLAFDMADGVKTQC
Sequence of CSNK1G2 (P78368 whole entry): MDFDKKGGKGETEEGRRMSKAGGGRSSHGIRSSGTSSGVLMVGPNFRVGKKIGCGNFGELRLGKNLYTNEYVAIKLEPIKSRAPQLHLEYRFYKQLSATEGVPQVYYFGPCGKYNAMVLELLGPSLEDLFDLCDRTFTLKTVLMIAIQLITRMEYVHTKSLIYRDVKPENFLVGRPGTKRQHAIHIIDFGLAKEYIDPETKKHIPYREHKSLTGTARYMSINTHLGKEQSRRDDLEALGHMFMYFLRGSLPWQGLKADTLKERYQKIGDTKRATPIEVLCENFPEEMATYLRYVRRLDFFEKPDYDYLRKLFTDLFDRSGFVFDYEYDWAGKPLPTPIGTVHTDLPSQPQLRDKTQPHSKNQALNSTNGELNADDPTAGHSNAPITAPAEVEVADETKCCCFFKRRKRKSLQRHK

CN1C(=O)[C@@H](N2CCc3c(nn(Cc4ccccc4)c3C(N)=O)C2=O)COc2cc(Cl)ccc21 [Compound 10, (S)-2-benzyl-6-(8-chloro-5-methyl-4-oxo-2,3,4,5-tetrahydrobenzo[b][1,4]oxazepin-3-yl)-7-oxo-4,5,6,7-tetrahydro-2H-pyrazolo[3,4-c]pyridine-3-carboxamide]
receptor occupancy at 1 µM (PTK2B): -1.12%
receptor occupancy at 1 µM (MAPK8): -11.5%
receptor occupancy at 1 µM (SNF1LK2): 4.84%
receptor occupancy at 1 µM (FYN [1]): 5.88%
receptor occupancy at 1 µM (JNK3): 3.53%
receptor occupancy at 1 µM (CSNK1G2): 3.57%
remaining binding at 1 µM (PIK3CD): 83%
remaining binding at 1 µM (GRK2; 1000 nM): 99%
remaining binding at 0.1 µM (GRK2; compound concentration 100 nM, Entrez ADRBK1): 91%
remaining binding at 0.1 µM (NEK2): 82%
remaining binding at 1 µM (CDK4-cyclinD3): 95%
remaining binding at 1 µM (TTK): 93%
remaining binding at 1 µM (TNIK): 96%
remaining binding at 1 µM (RIPK2): 80%
remaining binding at 0.1 µM (VPS34): 100%
remaining binding at 1 µM (ERK5): 86%
remaining binding at 1 µM (PLK4): 82%
remaining binding at 1 µM (QSK; 1000 nM): 98%
remaining binding at 0.1 µM (QSK; compound concentration 100 nM, Entrez KIAA0999): 90%
remaining binding at 1 µM (SLK): 78%
remaining binding at 1 µM (CDK9): 85%
remaining binding at 1 µM (HUNK; 1000 nM): 100%
remaining binding at 0.1 µM (HUNK; compound concentration 100 nM, Entrez HUNK): 82%
remaining binding at 1 µM (MYO3A): 94%
remaining binding at 0.1 µM (NIK): 80%
remaining binding at 1 µM (FGFR2; 1000 nM): 100%
remaining binding at 0.1 µM (FGFR2; compound concentration 100 nM, Entrez FGFR2): 100%
remaining binding at 1 µM (NEK7): 93%
remaining binding at 1 µM (PAK3): 74%
remaining binding at 1 µM (FYN [2]): 77%
remaining binding at 1 µM (MST1R): 91%
remaining binding at 1 µM (MKK7; 1000 nM): 99%
remaining binding at 0.1 µM (MKK7; compound concentration 100 nM, Entrez MAP2K7): 91%
remaining binding at 1 µM (MLCK): 93%
remaining binding at 1 µM (DRAK1): 91%
remaining binding at 1 µM (LCK): 82%
remaining activity at 1 µM (FLT3(N841I)): 96%
Percent Control (FLT3(ITD,D835V)): 81%
